A word on the Ki: it is a measure of affinity in units of concentration, obtained from inhibition or displacement. As a reminder, the IC50 is the point on the concentration scale where inhibition reaches its midpoint. A word on the half-life: it is the time needed for the level to fall by half in the phase considered.

Residue numbers refer to the chain shown, from its start. Read-outs that look alike come from different tables or passages of the source.

The text below walks through data of paper PMC11843629, “Development of ketobenzothiazole-based peptidomimetic TMPRSS13 inhibitors with low nanomolar potency” (Journal of Enzyme Inhibition and Medicinal Chemistry, 2025).

One data set has as its target T1, TMPRSS13 (Homo sapiens, UniProt Q9BYE2, K566A/R563A/R565A).
T1 construct: Shedding of the TMPRSS13 catalytic domain was detected for both constructs in the cell media; made in house; host or cells: Expi293F cells
T1 sequence (Q9BYE2 with tags, fused parts or gaps isoform Q9BYE2-6 limits assumed): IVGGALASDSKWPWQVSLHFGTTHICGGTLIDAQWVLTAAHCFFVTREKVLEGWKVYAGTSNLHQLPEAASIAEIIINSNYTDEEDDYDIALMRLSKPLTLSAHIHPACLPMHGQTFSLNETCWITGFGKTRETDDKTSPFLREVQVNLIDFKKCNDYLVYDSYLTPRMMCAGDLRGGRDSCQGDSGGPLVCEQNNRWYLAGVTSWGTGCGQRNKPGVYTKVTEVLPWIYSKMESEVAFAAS
The experiment in a line: In vitro inhibition assay, recombinant TMPRSS13-AFAAS-6His, Boc-RVRR-AMC. It is filed as biochemical. The following applies: dose-response curve, Cheng-Prusoff equation. As for the experimental part:
TMPRSS13-AFAAS-6His was expressed via the Expi293 Expression System Kit (Thermo Fisher Scientific, A14635) according to the manufacturer’s instructions and purified via IMAC chromatography. Briefly, Expi293F cells were transfected for 48 h with the TMPRSS13-AFAAS-6His construct, and media containing the shed recombinant protease was injected on a HisTrap Excel column (Cytiva, 17371206) via an ÄKTA Start protein purification system (Cytiva). The bound proteins were then eluted (20 mM sodium phosphate pH 7.4, 500 mM NaCl, and 500 mM imidazole), and the TMPRSS13-containing fractions were dialysed for 16 h at 4 °C in storage buffer (20 mM sodium phosphate pH 7.4, 150 mM NaCl, and 10% glycerol). Proteins were then concentrated via a 10 kDa Amicon Ultra centrifugal filter (Millipore Sigma, UFC8010) and stored at −80 °C.
(§1) Recombinant TMPRSS13-AFAAS-6His (this study) and matriptase[34] were expressed and purified as described. Recombinant human furin, Factor Xa (R&D Systems) and thrombin (MilliporeSigma) were obtained from commercial sources. Assays were performed in a buffer composed of 50 mM HEPES pH 7.4, 1 mM β-mercaptoethanol, 1 mM CaCl2 and 500 μg/ml BSA for furin and 50 mM HEPES pH 7.4, 150 mM NaCl and 0.1% BSA for other proteases. Assays were performed at room temperature using fluorogenic substrates (Boc-RVRR-AMC for furin and TMPRSS13, Boc-QAR-AMC for other proteases). The enzymatic activity was measured via fluorescence (excitation at 360 nm and emission at 460 nm) at room temperature using an HTX Synergy microplate reader (Agilent). Kis for TMPRSS13 and Factor Xa (FXa) were derived from IC50 dose–response curves using the Cheng-Prusoff equation[35] for reversible competitive inhibitors. For matripase, a plot of the enzyme velocity as a function of the inhibitor concentration was fitted with nonlinear regression analysis via the Morrison Ki equation[36] for competitive tight-binding inhibitors.

For the next data set, the target named is T2, Factor Xa (Homo sapiens, UniProt P00742).
T2 construct: purchased R&D Systems
T2 sequence (P00742 235-488 limits assumed): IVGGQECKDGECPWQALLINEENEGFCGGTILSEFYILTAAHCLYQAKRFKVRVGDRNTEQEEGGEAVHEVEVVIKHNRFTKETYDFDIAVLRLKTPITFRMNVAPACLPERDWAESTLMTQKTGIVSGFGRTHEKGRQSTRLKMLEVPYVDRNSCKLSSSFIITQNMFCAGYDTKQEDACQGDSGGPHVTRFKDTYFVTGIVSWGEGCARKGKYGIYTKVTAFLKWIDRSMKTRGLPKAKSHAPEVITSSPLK
T2 sequence (P00742 41-179 partner limits assumed): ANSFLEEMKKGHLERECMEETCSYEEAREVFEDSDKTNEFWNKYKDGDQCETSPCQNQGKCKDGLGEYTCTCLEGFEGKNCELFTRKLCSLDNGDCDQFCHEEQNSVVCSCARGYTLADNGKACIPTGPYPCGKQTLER
Nature of the data set: In vitro inhibition assay, Factor Xa, Boc-QAR-AMC. Type of data set: biochemical. The following applies: Cheng-Prusoff equation. As for the experimental part: as §1

A further data set deals with T3, WT TMPRSS13 (Homo sapiens, UniProt Q9BYE2).
T3 construct: the full length TMPRSS13 (TMPRSS13-WT); expressed in transfected cells; host or cells: Vero C1008 (Vero E6) cells
T3 sequence (Q9BYE2 326-567 isoform Q9BYE2-6 limits assumed): T1 sequence (Q9BYE2 with tags, fused parts or gaps isoform Q9BYE2-6 limits assumed) with A238R, A240R, A241K
Nature of the data set: In cellulo inhibitory activity in TMPRSS13-transfected Vero cells. Type of data set: cell-based. The following applies: 24 h; for IC50: Boc-RVRR-AMC, read-out: IC50 in cellulo TMPRSS13 inhibition; for remaining activity at 10 µM: 10 µM compound, media, relative to DMSO, read-out: residual activity of TMPRSS13. The method, then:
Vero C1008 cells were grown in 12-well plates (200K cells per well) and transfected for 24 h via Lipofectamine 3000 (Life Technologies) with one of the following plasmids: pcDNA3.1 (empty vector, EV), pcDNA3.1-TMPRSS13 WT or pcDNA3.1-TMPRSS13-AFAAS-6His. The cells were then washed 2 times with PBS before HCell-100 medium (Wisent) containing the indicated concentrations of each compound or the control condition (0.01% DMSO) was added. After 24 h of incubation with the compounds, the medium was harvested, and 90 μL was placed in 96-well plate wells with 10 µL of 200 μM Boc-RVRR-AMC. Fluorescence was acquired at room temperature in an FLx800 TBE microplate reader, with excitation at 360 nm and emission at 460 nm. The background was then subtracted by removing the signal recorded with the cells transfected with the empty vector (pcDNA3.1). Proteolytic activity results are represented as a percentage of the DMSO-treated condition. The IC50 was calculated via nonlinear regression of the compound concentration relative to the velocity.

The next data set is described as follows: in vitro. The conditions noted are these: final conc. 0.2 mM, 37 °C; for half-life at 0.2 mM: male, Sprague-Dawley, rat, pooled rat plasma (K2EDTA), Mean half-life, Plasma. The source says:
Adult male Sprague-Dawley rats, weighing between 225 and 300 g (Charles River Laboratories, St. Constant, Canada), were housed in groups of four per double-decker cage on Aspen shavings in a quiet environment. They were maintained under a 12-h light/dark cycle with unrestricted access to food and water. All experimental protocols received approval from the Animal Care Committee of the Université de Sherbrooke, adhering to the Canadian Council on Animal Care guidelines. The procedures also followed the ARRIVE guidelines (Animals in Research: Reporting In Vivo Experiments) and the United States NIH regulations (Ethics approval ID: 2022–3440). To evaluate the stability of compounds in plasma, 6 rats were anaesthetised with 2 L/min oxygen and 5% isoflurane, after which plasma was collected, pooled, and stored frozen until experiments were performed.
For evaluating plasma stability, rats were anaesthetised using a flow of 2 L/min of oxygen combined with 5% isoflurane. Blood was obtained via cardiac puncture from the left ventricle using a 20 G ½ needle, collected in pre-chilled Vacutainer K2EDTA tubes (367861), and maintained on wet ice. The blood was then centrifuged at 2000 xG for 15 min at 4 °C. Plasma samples were pooled from six rats, aliquoted, and stored at −80 °C. […] To terminate the reaction, 140 μL of a 1:1 acetonitrile-ethanol solution containing 0.25 mM N,N-dimethylbenzamide (used as an internal standard) was added. The resulting mixture was transferred onto an Impact Protein Precipitation filter plate (Phenomenex, California), with a 96-well UPLC plate positioned below to collect the filtrates. Both plates were centrifuged at 500 × g for 10 min at 4 °C. The filtrates were diluted with 30 μL of distilled water before analysis using an Acquity UPLC-MS system class H (column Acquity UPLC protein BEH C18 (2.1 mm × 50 mm), 1.7 μm particles, 130 Å pore size). The peptide’s half-life was determined from the degradation profile utilising the exponential one-phase decay function in GraphPad Prism 9. Mass spectra obtained at time points close to the calculated half-life were compared with those at 0 min (plasma inactivated prior to compound addition) to identify cleavage fragments.

Consider `N=C(N)NCCCCC(=O)N[C@@H](CCC(N)=O)C(=O)N[C@@H](CCc1ccccc1)C(=O)N[C@@H](CCCNC(=N)N)C(=O)c1nc2ccccc2s1` [Compound N-0430, (H)-RQhFR-Kbt], for which the Ki on TMPRSS13 came to 5.3 nM; on Factor Xa, 56.9 ± 9 nM. Also, the IC50 at WT TMPRSS13 turned out to be 53 nM. Also, the remaining activity at 10 µM on WT TMPRSS13 (Vero) was determined as 9%. Besides, the half-life at 0.2 mM in the data set “in vitro” was 40.8 h.

As to `N=C(N)NCCCCC(=O)N[C@@H](CCC(N)=O)C(=O)N[C@@H](Cc1ccccc1)C(=O)N[C@@H](CCCNC(=N)N)C(=O)c1nc2ccccc2s1` [Compound N-0130, (H)-RQFR-Kbt], at TMPRSS13, the Ki was 24.6 nM. Further, the Ki on Factor Xa amounted to 48.2 ± 3.7 nM. At WT TMPRSS13, the remaining activity at 10 µM came to 18.4% and the IC50 was 192 nM. Besides, the half-life at 0.2 mM in the data set “in vitro” was 79.2 h. In addition, the “Mean half-life, Plasma” value in the data set “in vitro” (rat plasma (male)) was 78.5 h.
